Measured values from ChEMBL document CHEMBL1137149, “Bile acid conjugates of a nonsteroidal glucocorticoid receptor modulator” (Bioorg Med Chem Lett, 2004).

Columns and labels:
Glucocorticoid receptor [1] = molecular target: T1, Glucocorticoid receptor (Homo sapiens, UniProt P04150)
T1 sequence (P04150 whole entry): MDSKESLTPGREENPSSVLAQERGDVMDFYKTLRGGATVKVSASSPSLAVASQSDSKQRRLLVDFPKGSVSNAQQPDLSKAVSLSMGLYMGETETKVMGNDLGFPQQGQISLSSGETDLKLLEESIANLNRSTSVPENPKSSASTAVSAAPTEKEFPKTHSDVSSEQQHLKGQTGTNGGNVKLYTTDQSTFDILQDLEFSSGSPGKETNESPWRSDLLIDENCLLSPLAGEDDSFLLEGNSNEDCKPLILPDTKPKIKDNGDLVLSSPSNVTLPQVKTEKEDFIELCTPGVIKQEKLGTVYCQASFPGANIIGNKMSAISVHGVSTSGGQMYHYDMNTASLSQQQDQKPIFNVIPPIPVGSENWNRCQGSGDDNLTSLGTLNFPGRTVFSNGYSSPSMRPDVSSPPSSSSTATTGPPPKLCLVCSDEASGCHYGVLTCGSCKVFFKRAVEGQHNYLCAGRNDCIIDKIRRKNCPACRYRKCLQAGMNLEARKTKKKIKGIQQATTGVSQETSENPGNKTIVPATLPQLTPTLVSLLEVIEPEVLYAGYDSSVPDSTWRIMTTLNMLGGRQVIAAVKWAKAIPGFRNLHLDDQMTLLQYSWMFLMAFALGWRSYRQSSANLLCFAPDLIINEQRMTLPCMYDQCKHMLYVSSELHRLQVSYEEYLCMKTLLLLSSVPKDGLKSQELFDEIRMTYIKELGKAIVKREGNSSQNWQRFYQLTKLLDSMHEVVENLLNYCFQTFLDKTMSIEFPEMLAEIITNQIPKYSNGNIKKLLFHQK

Glucocorticoid receptor [2] = molecular target: T1, Glucocorticoid receptor; format: functional
Description: Inhibition of glucocorticoid receptor Dexamethasone response in reporter gene assay

Glucocorticoid receptor [3] = molecular target: T2, Glucocorticoid receptor (Rattus norvegicus, UniProt P06536); format: functional, cell-based; settings: hepatocyte
T2 sequence (P06536 whole entry): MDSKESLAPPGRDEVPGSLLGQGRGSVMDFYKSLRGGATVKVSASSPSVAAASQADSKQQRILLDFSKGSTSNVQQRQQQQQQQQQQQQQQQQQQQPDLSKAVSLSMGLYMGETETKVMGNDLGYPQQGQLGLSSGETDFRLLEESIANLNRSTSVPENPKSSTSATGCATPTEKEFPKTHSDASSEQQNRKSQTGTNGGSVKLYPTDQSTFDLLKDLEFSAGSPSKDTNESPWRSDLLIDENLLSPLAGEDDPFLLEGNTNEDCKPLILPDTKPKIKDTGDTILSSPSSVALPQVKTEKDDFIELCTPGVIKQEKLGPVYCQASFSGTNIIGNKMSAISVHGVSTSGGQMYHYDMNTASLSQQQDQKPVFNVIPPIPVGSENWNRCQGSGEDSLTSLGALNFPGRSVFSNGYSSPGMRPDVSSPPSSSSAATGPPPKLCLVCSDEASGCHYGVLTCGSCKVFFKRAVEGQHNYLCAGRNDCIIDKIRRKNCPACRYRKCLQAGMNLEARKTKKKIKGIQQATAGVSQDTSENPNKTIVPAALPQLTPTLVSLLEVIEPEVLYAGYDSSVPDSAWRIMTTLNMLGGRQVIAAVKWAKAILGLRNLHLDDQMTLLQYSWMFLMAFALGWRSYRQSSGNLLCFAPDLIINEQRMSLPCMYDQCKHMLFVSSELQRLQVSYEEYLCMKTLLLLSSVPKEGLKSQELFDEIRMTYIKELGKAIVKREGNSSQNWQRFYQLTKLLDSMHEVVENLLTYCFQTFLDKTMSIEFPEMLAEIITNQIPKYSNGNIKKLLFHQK

[4] = molecular target: T3, Hepatic sodium/bile acid cotransporter (Rattus norvegicus, UniProt P26435)
T3 sequence (P26435 whole entry): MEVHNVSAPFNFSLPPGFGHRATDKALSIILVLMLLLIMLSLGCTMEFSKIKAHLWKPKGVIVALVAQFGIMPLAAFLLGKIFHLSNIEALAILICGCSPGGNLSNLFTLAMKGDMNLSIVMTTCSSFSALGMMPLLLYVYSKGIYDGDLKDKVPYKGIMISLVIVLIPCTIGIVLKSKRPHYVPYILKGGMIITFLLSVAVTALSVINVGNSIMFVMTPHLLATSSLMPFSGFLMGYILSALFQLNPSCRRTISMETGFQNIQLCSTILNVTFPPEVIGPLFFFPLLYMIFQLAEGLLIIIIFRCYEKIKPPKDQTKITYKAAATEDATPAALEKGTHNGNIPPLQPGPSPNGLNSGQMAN

| Compound | IC50 (Glucocorticoid receptor [1]) [nM] | IC50 (Glucocorticoid receptor [2]) [nM] | IC50 (Glucocorticoid receptor [3]) | IC50 [4] [nM] |
| --- | --- | --- | --- | --- |
| Cc1c(NS(C)(=O)=O)cccc1N(Cc1ccc(Oc2ccccc2)cc1)Cc1cccc(CCCC(=O)NCCO[C@H]2CC[C@@]3(C)[C@@H](C2)C[C@@H](O)[C@@H]2[C@@H]3C[C@H](O)[C@]3(C)[C@@H]([C@H](C)CCC(=O)O)CC[C@@H]23)c1 | 93 | – | – | – |
| Cc1c(NS(C)(=O)=O)cccc1N(Cc1ccccc1)Cc1ccc(CCC(=O)NCCO[C@H]2CC[C@@]3(C)[C@@H](C2)C[C@@H](O)[C@@H]2[C@@H]3C[C@H](O)[C@]3(C)[C@@H]([C@H](C)CCC(=O)O)CC[C@@H]23)cc1 | 560 | 310 | – | – |
| Cc1c(NS(C)(=O)=O)cccc1N(Cc1ccc(Oc2ccc(CCC(=O)NCCO[C@@H]3CC[C@]4(C)[C@H](C3)C[C@H](O)[C@@H]3[C@@H]4C[C@@H](O)[C@]4(C)[C@H]3CC[C@H]4[C@@H](C)CCC(=O)O)cc2)cc1)Cc1ccc(F)cc1F | 270 | – | – | – |
| Cc1c(NS(C)(=O)=O)cccc1N(Cc1ccc(CCCC(=O)NCCO[C@@H]2CC[C@]3(C)[C@H](C2)C[C@H](O)[C@@H]2[C@@H]3C[C@@H](O)[C@]3(C)[C@H]2CC[C@H]3[C@@H](C)CCC(=O)O)cc1)Cc1ccc(Oc2ccccc2)cc1 | 260 | – | – | – |

Stronger by IC50 (Glucocorticoid receptor [1]), values ahead:

| IC50 (Glucocorticoid receptor [1]) [nM] | IC50 (Glucocorticoid receptor [2]) [nM] | IC50 (Glucocorticoid receptor [3]) | IC50 [4] [nM] | Compound |
| --- | --- | --- | --- | --- |
| 62 | 390 | – | – | Cc1c(NS(C)(=O)=O)cccc1N(Cc1ccccc1)Cc1ccc(Oc2cccc(CCCC(=O)NCCO[C@@H]3CC[C@]4(C)[C@H](C3)C[C@H](O)[C@@H]3[C@@H]4C[C@@H](O)[C@]4(C)[C@H]3CC[C@H]4[C@@H](C)CCC(=O)O)c2)cc1 |
| 57 | 590 | – | – | Cc1c(NS(C)(=O)=O)cccc1N(Cc1ccccc1)Cc1ccc(Oc2cccc(OCC(=O)NCCO[C@H]3CC[C@@]4(C)[C@@H](C3)C[C@@H](O)[C@@H]3[C@@H]4C[C@H](O)[C@]4(C)[C@@H]([C@H](C)CCC(=O)O)CC[C@@H]34)c2)cc1 |
| 50 | – | – | – | Cc1c(NS(C)(=O)=O)cccc1N(Cc1ccccc1)Cc1ccc(Oc2ccc(CCCC(=O)NCCO[C@H]3CC[C@@]4(C)[C@@H](C3)C[C@@H](O)[C@@H]3[C@@H]4C[C@H](O)[C@]4(C)[C@@H]([C@H](C)CCC(=O)O)CC[C@@H]34)cc2)cc1 |
| 17 | 450 | Not Active | 4 | Cc1c(NS(C)(=O)=O)cccc1N(Cc1ccccc1)Cc1ccc(Oc2ccc(CCC(=O)NCCO[C@@H]3CC[C@]4(C)[C@H](C3)C[C@H](O)[C@@H]3[C@@H]4C[C@@H](O)[C@]4(C)[C@H]3CC[C@H]4[C@@H](C)CCC(=O)O)cc2)cc1 |
